Data taken from patent US11632953B2, “Method for controlling hematophagous or sap-feeding arthropods” (Board of Supervisors of Louisiana State University and …, priority 2016, dated 2023).
“Also recorded” adds a separate entry of the source.

How the values were obtained:
[1] = molecular target: Kir7.1 (Homo sapiens (Human), UniProt O60928); assay: thallium (Tl+) flux assay; assay type: cell-based, mammalian
[2] = molecular target: T1, AnKir1 (Anopheles gambiae, UniProt A0A075M2J8); assay: thallium (Tl+) flux assay; assay type: cell-based
T1 sequence (A0A075M2J8 1-555): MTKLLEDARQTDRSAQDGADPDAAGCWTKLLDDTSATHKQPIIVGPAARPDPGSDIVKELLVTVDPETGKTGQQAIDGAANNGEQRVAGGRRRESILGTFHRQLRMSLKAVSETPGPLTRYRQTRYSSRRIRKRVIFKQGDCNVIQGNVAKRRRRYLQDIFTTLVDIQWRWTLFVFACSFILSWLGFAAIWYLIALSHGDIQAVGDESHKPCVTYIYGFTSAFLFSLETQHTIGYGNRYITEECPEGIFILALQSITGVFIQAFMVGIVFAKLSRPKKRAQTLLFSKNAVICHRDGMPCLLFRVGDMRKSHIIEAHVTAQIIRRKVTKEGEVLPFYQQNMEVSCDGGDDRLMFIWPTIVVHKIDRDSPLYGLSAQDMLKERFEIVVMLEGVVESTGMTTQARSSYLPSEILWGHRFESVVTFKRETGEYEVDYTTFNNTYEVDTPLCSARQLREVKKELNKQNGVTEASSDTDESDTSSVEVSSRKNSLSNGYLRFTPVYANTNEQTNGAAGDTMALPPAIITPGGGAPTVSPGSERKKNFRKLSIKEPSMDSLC
Procedure: The thallium flux assay is an in vitro method of measuring conductance through a potassium ion channel. Potassium channels are also permeable to thallium ions. The modulation of a K^+ channel will thus increase or decrease thallium ion flow through the channel and thus, alter the observed fluorescence of a thallium-specific indicator dye.
After 1 hr incubation at room temperature, the dye-loading solution was washed from the plates and replaced with 20 μL/well of assay buffer. The plates were transferred to a Hamamatsu Functional Drug Screening System 6000 (FDSS6000; Hamamatsu, Tokyo, Japan), where 20 μL/well of each of the test compounds in assay buffer was added and allowed to incubate with the cells for 20 min. After incubation, a baseline recording was collected at 1 Hz for 10 s (excitation 470±20 nm, emission 540±30 nm); a thallium stimulus buffer was then added (10 μL/well), and data were then collected for an additional 4 min. […] To ensure the small-molecule vehicle DMSO had no direct effect on AnKir1-dependent Tl^+ flux, the assay's tolerance to different doses of DMSO was evaluated. The robustness and reproducibility of the assay was determined by comparing Tl^+ flux through tetracycline-induced and tetracycline-free cells. The Z′ value was calculated as:
Z′=1−(3SDp+3SDn)/|meanp+meann| where SD is standard deviation, and p and n are control and uninduced flux values, respectively. To compare the effect of DMSO on AnKir1-mediated Tl^+ flux, a one-way ANOVA was performed with a Tukey's multiple comparison test. Prism software (GraphPad Software) was used to generate CRC from Tl^+ flux. Half-inhibition concentration (IC50) values were calculated from fits using a four parameter logistic equation.
Test compounds were transferred to daughter, 384-well polypropylene plates (Greiner Bio-One, Monroe, N.C.) with an Echo555 liquid handler (Labcyte, Sunnyvale, Calif.), and then diluted into assay buffer to generate a 2× stock in 0.6% DMSO (0.3% final). […] Concentration-response curves (CRCs) were generated by screening compounds at 3-fold dilution series (1 nM-30 μM).
Tl^+ flux data were analyzed using Excel (Microsoft Corp, Redmond, Wash.) with XLfit add-in (IDBS, Guildford, Surrey, UK), OriginPro (Origin Lab, Northampton, Mass.), and GraphPad Prism (GraphPad Software, San Diego, Calif., USA) software. Raw data were opened in Excel and each data point in a given trace was divided by the first data point from that trace (static ratio) followed by subtraction of data points from control traces generated with vehicle controls. The slope of the fluorescence increase beginning 5 s after Tl^+ addition and ending 15 s after Tl^+ addition was calculated.
To perform Tl+ flux assays, stably transfected T-Rex-HEK-293 cells expressing AnKir1 channels were cultured overnight in 384-well plates (20,000 cells/20 μL/well), black-walled, clear-bottomed BD Pure Coat amine-coated plates (BD, Bedford, Mass.) with a plating media containing DMEM, 10% dialyzed FBS and 1 μg/mL tetracycline. […] Following 1 hr incubation at room temperature, the dye-loading solution was washed from the plates and replaced with 20 μL/well of assay buffer.

[3] = system: Aphis gossypii; assay: aphid feeding on treated cotton leaves, electrophenegraph technique; assay type: in vivo; conditions: barium chloride at 300 micromolar
Procedure: FIGS. 14(A) and (B) depict measurements of aphid (Aphis gossypi) feeding on cotton leaves, as measured through the electrophenegraph technique; on control leaves and on leaves treated with the Kir inhibitor barium, respectively.
In aphids, a specific Kir channel blocker (barium chloride at 300 micromolar) was coated onto leaf tissue, and the feeding behavior of the adult aphid was analyzed through the classical electrophenegraph technique.

[4] = molecular target: T1, AnKir1; assay: whole-cell patch clamp electrophysiology; assay type: cell-based
Procedure: Patch electrodes were pulled from silanized 1.5 mm outer diameter borosilicate microhematocrit tubes using a P-1000 Flaming/Brown micropipette puller (Sutter Instrument, Novato Calif., USA). Electrode resistance ranged from 2-4 MΩ. Whole-cell currents were recorded under voltage-clamp conditions using an Axopatch 200B amplifier (Molecular Devices, Sunnyvale, Calif.). Electrical connections to the amplifier used Ag/AgCl wires and 3 M KCl/agar bridges. Electrophysiological data were collected at 5 kHz and filtered at 1 kHz. Data acquisition and analysis were performed using pClamp 9.2 software (Axon Instruments).
Transiently transfected HEK-293T cells expressing AnKir1 were voltage-clamped in the whole-cell configuration of the patch clamp technique. The extracellular bath solution contained (in mM): 135 NaCl, 5 KCl, 2 CaCl2), 1 MgCl2, 5 glucose, 10 HEPES free acid, pH 7.4, 290 mOsm/kg H2O. The pipette solution contained (in mM): 135 KCl, 2 MgCl2, 1 EGTA, 10 HEPES free acid, 2 Na2ATP (Roche, Indianapolis, Ind.), pH 7.3, 275 mOsm. Cells were voltage clamped at −75 mV, stepped to −120 mV for 200 msec, and then ramped to 120 mV at a rate of 2.4 mV/msec. Concentration-response curves (CRCs) were constructed by measuring the effects of increasing doses of inhibitors on AnKir1 currents at −120 mV. All recordings were made at room temperature (20-23° C.).

[5] = system: mosquitoes; assay: topical toxicity to mosquitoes (species not specified); assay type: in vivo; conditions: dose of 10 μg per mg; within 24 h
[6] = system: honey bees (Apis mellifera); assay: acute topical toxicity in adult honey bees; assay type: in vivo; conditions: 48 h, VU041 1 mg/bee (~10 μg/mg), bifenthrin 0.1 μg/bee
Procedure: Frames of late-stage honeybee (A. mellifera) pupae were taken from four colonies at The Ohio State University Honey Bee Lab in Wooster, Ohio, and maintained in a dark humid incubator at 34° C. (Darwin Chambers Co., St. Louis, Mo., model H024) until adult bees emerged. New adults were brushed from frames daily, placed in wooden screen cages (21×14×12 cm), and provided with 1:1 (w/w) sucrose in water.
Acute toxicity experiments in adult bees were performed as follows: Twenty-four hours after emergence, adult honey bees in cages were anaesthetized with carbon dioxide, divided into groups of approximately 20 bees each, and placed in plastic-coated paper cups (177 cm^3; UNIQ Paper Yogurt Cup, Frozen Dessert Supplies, Gilbert, Ariz.) covered with cotton cheesecloth. […] As a positive control, some bees were treated with 3 μl of bifenthrin (0.1 μg/μl). Negative control bees were treated with 3 μl of solvent. Applications were made using a 20 μl micropipette (Fisherbrand Finnpipette F2, Fisher Scientific, Pittsburgh, Pa.) with a disposable plastic tip. […] Toxicity to honey bees was recorded at 48 h, rather than the 24 h used for mosquitoes, to allow for the possibility of delayed toxicity due to the larger body size of the bee. Bees showing no movement 48 h after treatment were scored as dead.

[7] = whole-cell patch clamp, HEK-293T cells

Chain of Kir7.1 (O60928 whole entry): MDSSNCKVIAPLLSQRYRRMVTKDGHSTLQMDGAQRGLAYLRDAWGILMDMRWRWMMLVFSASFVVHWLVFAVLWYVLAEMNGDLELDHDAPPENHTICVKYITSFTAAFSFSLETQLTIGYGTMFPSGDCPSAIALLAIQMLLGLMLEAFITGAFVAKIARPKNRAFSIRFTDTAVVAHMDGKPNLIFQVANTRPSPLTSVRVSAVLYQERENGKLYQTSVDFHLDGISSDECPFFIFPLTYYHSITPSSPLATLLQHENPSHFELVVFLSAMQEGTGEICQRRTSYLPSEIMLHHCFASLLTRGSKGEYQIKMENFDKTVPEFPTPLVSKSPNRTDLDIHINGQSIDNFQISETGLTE

| Compound | inhibition at 30 µM ([1]; concentration of 30 μM) [%] | IC50 ([1]; means (n = 3), read-out: IC50 μM (95% Cl)) [µM] | IC50 ([2]; SAR libraries, read-out: AnKir1 IC50) [µM] | IC50 ([2]; means (n = 3), selectivity panel, read-out: IC50 μM (95% Cl)) [µM] | feeding phases (egestion, salivation, ingestion) [3] | Hill coefficient value ([4]; whole-cell patch clamp) | IC50 [4, 7] [nM] | lethality against mosquitoes [5] [%] | mortality of adult honey bees [6] | AnKir1 IC50 (μM) ([2]; SAR libraries, listed as 18) | AnKir1 IC50 (μM) ([2]; SAR libraries, listed as Compound 18) | activity less than VU041 ([4]; patch clamp) [fold] | IC50 ([4]; whole-cell patch clamp) [nM] |
| --- | --- | --- | --- | --- | --- | --- | --- | --- | --- | --- | --- | --- | --- |
| O=C(Cn1nc(C(F)(F)F)c2c1CCCC2)N1CCCc2ccccc21 [VU041, 1-(3,4-dihydroquinolin-1(2H)-yl)-2-(3-(trifluoromethyl)-4,5,6,7-tetrahydro-1H-indazol-1-yl)ethan-1-one] | < 10 | > 30 | 2.3 | 2.5 | No salivation was observed; also recorded: essentially completely inhibited egestion, salivation, and ingestion | 1.3 | 496 | ~100 | did not cause significant mortality; also recorded: not toxic |  |  |  |  |
| O=C(Cn1nc(C(F)(F)F)c2c1CCCC2)NC1CCC1 [VU937] |  |  |  |  | fed normally; also recorded: did not affect feeding |  | 29700 |  |  | inactive | not tolerated | 60 | 29700 |
